Data reported in patent US10752640B2, “Compounds active towards bromodomains” (NUEVOLUTION A/S, priority 2014, dated 2020).

Target: BRD4 protein (Homo sapiens, UniProt O60885)
Experiment: FRET assay, half maximal inhibitory concentration (IC50)
Format: binding
Conditions: BRD4 protein 50 nM, Biotin-H4KAc4 peptide 12.5 nM; A Further List of Classification
Method: The compounds were biologically evaluated by determining the half maximal inhibitory concentration (IC50) by FRET assay. The IC50 is a measure of the effectiveness of a substance in inhibiting a specific biological or biochemical function.
For IC50 determinations, dose-response curves were generated, using a top concentration of 50 μM compound in 12.5% DMSO, followed by 10-fold dilutions in 12.5% DMSO. The composition of the reaction buffer was 50 mM HEPES, pH 7.5; 100 mM NaCl, 0.05% CHAPS.
The reaction was run in a final volume of 25 μl. The BRD4 protein (16.5 μl) was added to wells of 384w white Optiplates (Perkin Elmer) (50 nM final concentration) and 1 μl of compound dilution of DMSO control. Incubation time was 30 minutes at room temperature. In the next step, 2.5 μl Biotin-H4KAc4 peptide (Millipore 13-379) was added to the wells (final concentration was 12.5 nM), and the plates were incubated for 30 minutes at room temperature. Detection was performed by addition of 5 μl of a mix of mAb GST-XL665 (Cisbio 61GSTXLB) (10 nM final concentration) and Streptavidin Cryptate (Cisbio 610SAKLB) (2.4 nM final conc.) in reaction buffer with 0.4M KF and 0.05% BSA). The plates were incubated for one hour prior to reading on an Envision reader (Perkin Elmer)
Data was analyzed using GraphPad Prism, and IC50 data was obtained using non-linear regression curve fit using log(inhibitor) vs response (variable slope). All compounds were considered active although classified (according to the half maximal inhibitory concentration (IC50) by FRET assay) as follows: […]

| IC50 | SMILES |
| --- | --- |
| < 200 nM | Cc1cc(O)nc2ccc(NC(=O)c3cc(CN4CC(O)C4)ccc3N3CCCC3)cc12 [S89, 5-[(3-hydroxyazetidin-1-yl)methyl]-N-(2-hydroxy-4-methyl-6-quinolyl)-2-pyrrolidin-1-yl-benzamide] |
| 500 to 1000 nM | Cc1cc(O)nc2ccc(NC(=O)c3cc(S(=O)(=O)N(C)C)ccc3N3CCC(N4CCCC4)C3)cc12 (stereo not shown) [S49, 5-(dimethylsulfamoyl)-N-(2-hydroxy-4-methyl-6-quinolyl)-2-(3-pyrrolidin-1-ylpyrrolidin-1-yl)benzamide] |
| < 200 nM | Cc1cc(O)nc2ccc(NC(=O)c3cc(CN4CCC(N(C)C)C4)ccc3N3CCCC3)cc12 (stereo not shown) [S83, 5-[[3-(dimethylamino)pyrrolidin-1-yl]methyl]-N-(2-hydroxy-4-methyl-6-quinolyl)-2-pyrrolidin-1-yl-benzamide] |
| > 10000 nM | CN1CCN(c2ccccc2C(=O)Nc2ccc3c(c2)OCC(=O)N3)CC1 [S5, 2-(4-methylpiperazin-1-yl)-N-(3-oxo-4H-1,4-benzoxazin-7-yl)benzamide] |
| 1000 to 10000 nM | Cc1cc(O)nc2ccc(NC(=O)c3ccccc3N3CCN(c4cnccn4)CC3)cc12 [S11, N-(2-hydroxy-4-methyl-6-quinolyl)-2-(4-pyrazin-2-ylpiperazin-1-yl)benzamide] |
| < 200 nM | Cc1cc(O)nc2ccc(NC(=O)c3cc(S(=O)(=O)N(C)C)ccc3N3CCCC3c3nnn[nH]3)cc12 (stereo not shown) [S60, 5-(dimethylsulfamoyl)-N-(2-hydroxy-4-methyl-6-quinolyl)-2-[2-(1H-tetrazol-5-yl)pyrrolidin-1-yl]benzamide] |
| 1000 to 10000 nM | NS(=O)(=O)c1ccc(N2CCOCC2)c(C(=O)Nc2ccc3[nH]c(=O)cc(C(F)(F)F)c3c2)c1 [S32, 2-morpholino-N-[2-oxo-4-(trifluoromethyl)-1H-quinolin-6-yl]-5-sulfamoyl-benzamide] |
| < 200 nM | Cc1cc(O)nc2ccc(NC(=O)c3cc(CNCC4CCCO4)ccc3N3CCCC3)cc12 (stereo not shown) [S82, N-(2-hydroxy-4-methyl-6-quinolyl)-2-pyrrolidin-1-yl-5-[(tetrahydrofuran-2-ylmethylamino)methyl]benzamide] |
| 500 to 1000 nM | Cc1cc(O)nc2ccc(NC(=O)c3cc(NS(=O)(=O)c4ccccc4)ccc3N3CCN(C)CC3)cc12 [S15, 5-(benzenesulfonamido)-N-(2-hydroxy-4-methyl-6-quinolyl)-2-(4-methylpiperazin-1-yl)benzamide] |
| < 200 nM | COC[C@@H]1CCCN1Cc1ccc(N2CCCC2)c(C(=O)Nc2ccc3nc(O)cc(C)c3c2)c1 [S85, N-(2-hydroxy-4-methyl-6-quinolyl)-5-[[(2S)-2-(methoxymethyl)pyrrolidin-1-yl]methyl]-2-pyrrolidin-1-yl-benzamide] |
| 1000 to 10000 nM | Cc1cc(O)nc2ccc(NC(=O)c3cc(S(=O)(=O)N(C)C)ccc3N3CCC4CN(C)CC43)cc12 (stereo not shown) [S54, 5-(dimethylsulfamoyl)-N-(2-hydroxy-4-methyl-6-quinolyl)-2-(5-methyl-2,3,3a,4,6,6a-hexahydropyrrolo[3,4-b]pyrrol-1-yl)benzamide] |
| > 10000 nM | Cc1cc(O)nc2ccc(NC(=O)c3cccc(S(=O)(=O)N4CCN(C)CC4)c3)cc12 [S36, N-(2-hydroxy-4-methyl-6-quinolyl)-3-(4-methylpiperazin-1-yl)sulfonyl-benzamide] |

Same assay, conditions: BRD4 protein 50 nM, Biotin-H4KAc4 peptide 12.5 nM; List of Classification

| IC50 | SMILES |
| --- | --- |
| < 200 nM | Cc1cc(O)nc2ccc(NC(=O)c3cc4[nH]cc(CN(C)C)c4cc3N3CCCC3)cc12 [Compound-85, 3-(dimethylaminomethyl)-N-(2-hydroxy-4-methyl-6-quinolyl)-5-pyrrolidin-1-yl-1H-indole-6-carboxamide] |
| 500 to 1000 nM | Cc1cc(O)nc2ccc(NC(=O)c3cc(-c4ccoc4)cnc3N3CCOCC3)cc12 [Compound-174, 5-(furan-3-yl)-N-(2-hydroxy-4-methylquinolin-6-yl)-2-morpholinonicotinamide] |
| < 200 nM | Cc1cc(O)nc2ccc(NC(=O)c3cc(S(=O)(=O)N4CCC(N(C)C)C4)ccc3N3CCOCC3)cc12 (stereo not shown) [Compound-6, 5-[3-(dimethylamino)pyrrolidin-1-yl]sulfonyl-N-(2-hydroxy-4-methyl-6-quinolyl)-2-morpholino-benzamide] |
| > 10000 nM | COc1ccccc1C(=O)Nc1ccc2nc(O)cc(C)c2c1 [Compound-69, N-(2-hydroxy-4-methyl-6-quinolyl)-2-methoxy-benzamide] |
| > 10000 nM | Cc1cc(O)nc2ccc(N(C)C(=O)c3cc(S(=O)(=O)N4CCOCC4)ccc3N3CCCC3)cc12 [Compound-22, N-(2-hydroxy-4-methylquinolin-6-yl)-N-methyl-5-(morpholinosulfonyl)-2-(pyrrolidin-1-yl) benzamide] |
| < 200 nM | Cc1cc(O)nc2ccc(NC(=O)c3cc(C#N)ncc3N3CCCC3)cc12 [Compound-41, 2-Cyano-N-(2-hydroxy-4-methylquinolin-6-yl)-5-(pyrrolidin-1-yl) isonicotinamide] |
| < 200 nM | Cc1cc(O)nc2ccc(NC(=O)c3cc(C(C)O)ncc3N3CCCC3CN(C)C)cc12 (stereo not shown) [Compound-213, 5-(2-((dimethylamino)methyl)pyrrolidin-1-yl)-N-(2-hydroxy-4-methylquinolin-6-yl)-2-(1-hydroxyethyl)isonicotinamide] |
| < 200 nM | Cc1cc(O)nc2ccc(NC(=O)c3cc(COC(C)C)ccc3N3CCCC3)cc12 [Compound-50, N-(2-hydroxy-4-methylquinolin-6-yl)-5-(isopropoxymethyl)-2-(pyrrolidin-1-yl) benzamide] |
| < 200 nM | Cc1cc(O)nc2ccc(NC(=O)c3cc(CN4CCOCC4)cnc3N3CCC(F)C3)cc12 (stereo not shown) [Compound-88, 2-(3-fluoropyrrolidin-1-yl)-N-(2-hydroxy-4-methyl-6-quinolyl)-5-(morpholinomethyl)pyridine-3-carboxamide] |
| < 200 nM | COc1cc(O)nc2ccc(NC(=O)c3cc(CN4CCN(C)CC4)ccc3N3CCCC3)cc12 [Compound-98, N-(2-hydroxy-4-methoxy-6-quinolyl)-5-[(4-methylpiperazin-1-yl)methyl]-2-pyrrolidin-1-yl-benzamide] |
| < 200 nM | Cc1nnc(-c2ccc(N3CCOCC3)c(C(=O)Nc3ccc4nc(O)cc(C)c4c3)c2)o1 [Compound-180, N-(2-hydroxy-4-methylquinolin-6-yl)-5-(5-methyl-1,3,4-oxadiazol-2-yl)-2-morpholinobenzamide] |
| < 200 nM | Cc1cc(O)nc2ccc(NC(=O)c3cc(-c4ccoc4)ccc3N3CCOCC3)cc12 [Compound-167, 5-(3-furyl)-N-(2-hydroxy-4-methyl-6-quinolyl)-2-morpholino-benzamide] |
| < 200 nM | CC(=O)c1ccc(N2CCCC2)c(C(=O)Nc2ccc3nc(O)cc(C)c3c2)n1 [Compound-38, 6-acetyl-N-(2-hydroxy-4-methylquinolin-6-yl)-3(pyrrolidin-1-yl)picolinamide] |
| < 200 nM | COc1cc2nc(O)cc(C)c2cc1NC(=O)c1cc(-c2cnn(C)c2)cnc1N1CCOCC1 [Compound-170, N-(2-hydroxy-7-methoxy-4-methylquinolin-6-yl)-5-(1-methyl-1H-pyrazol-4-yl)-2-morpholinonicotinamide] |
| 200 to 500 nM | Cc1cc(O)nc2ccc(NC(=O)c3cc(NCC(N)=O)ccc3N3CCOCC3)cc12 [Compound-55, 5-[(2-amino-2-oxo-ethyl)amino]-N-(2-hydroxy-4-methyl-6-quinolyl)-2-morpholino-benzamide] |
| 1000 to 10000 nM | COc1cc2nc(O)cc(C)c2cc1NC(=O)c1cc(-c2ccoc2)cnc1N1CCOCC1 [Compound-190, 5-(furan-3-yl)-N-(2-hydroxy-7-methoxy-4-methylquinolin-6-yl)-2-morpholinonicotinamide] |
| < 200 nM | Cc1cc(O)nc2ccc(NC(=O)c3cc(C(=O)O)ccc3N3CCOCC3)cc12 [Compound-182, 3-(2-hydroxy-4-methylquinolin-6-ylcarbamoyl)-4-morpholinobenzoic acid] |
| < 200 nM | COC(C)c1ccc(N2CCCC2)c(C(=O)Nc2ccc3nc(O)cc(C)c3c2)c1 (stereo not shown) [Compound-47, N-(2-hydroxy-4-methylquinolin-6-yl)-5-(1-methoxyethyl)-2-(pyrrolidin-1-yl) benzamide] |
| < 200 nM | Cc1cc(O)nc2ccc(NC(=O)c3cc(CN4CCOCC4)ccc3N3CCCC3CN(C)C)cc12 (stereo not shown) [Compound-32, 2-(2-((dimethylamino)methyl)pyrrolidin-1-yl)-N-(2-hydroxy-4-methylquinolin-6-yl)-5-(morpholinomethyl) benzamide] |
| < 200 nM | Cc1cc(O)nc2ccc(NC(=O)c3cc(C(F)(F)F)ccc3N3CCCC3)cc12 [Compound-109, N-(2-hydroxy-4-methyl-6-quinolyl)-2-pyrrolidin-1-yl-5-(trifluoromethyl)benzamide] |
| < 200 nM | Cc1cc(O)nc2ccc(NC(=O)c3cnccc3N3CCOCC3)cc12 [Compound-123, N-(2-hydroxy-4-methyl-6-quinolyl)-4-morpholino-pyridine-3-carboxamide] |
| < 200 nM | Cc1cc(O)nc2ccc(NC(=O)c3cccnc3N3CCC(F)(F)C3)cc12 [Compound-133, 2-(3,3-difluoropyrrolidin-1-yl)-N-(2-hydroxy-4-methyl-6-quinolyl)pyridine-3-carboxamide] |
